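Protocol summary: plate cells (96-well), add compound at 5 concentrations, incubate 48 h, interpolate endpoints linearly. The concentration for 50% growth inhibition is given as GI50.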 Active and inactive are the calls of the source. Cut-off read from the data, not from the text of the source: active = GI50 up to about 1.1 µM and inactive = higher.
Columns and labels:
Test in all cases: DTP human tumour cell line panel, 48 h
SN12C = system: SN12C
NCI-H23 = system: NCI-H23
HCT-15 = system: HCT-15
XF498 = system: XF498
A549 = system: A549
SNB-75 = system: SNB-75
NCI-H522 = system: NCI-H522
SF-268 = system: SF-268
K562 = system: K562
HCT-116 = system: HCT-116
SW-620 = system: SW-620
MOLT-4 = system: MOLT-4
SK-MEL-5 = system: SK-MEL-5
SNB-19 = system: SNB-19
DMS-273 = system: DMS-273
Malme-3M = system: Malme-3M
RXF 393 = system: RXF 393
OVCAR-4 = system: OVCAR-4
HL-60 = system: HL-60
KM12 = system: KM12
HT-29 = system: HT-29
UO-31 = system: UO-31
SF-295 = system: SF-295
HOP-62 = system: HOP-62
RPMI-8226 = system: RPMI-8226
NCI-H460 = system: NCI-H460
LXFL 529 = system: LXFL 529
SNB-78 = system: SNB-78
SK-MEL-2 = system: SK-MEL-2
M19-MEL = system: M19-MEL
NCI-H226 = system: NCI-H226
DMS-114 = system: DMS-114
786-0 = system: 786-0
KM-20L2 = system: KM-20L2
LOX IMVI = system: LOX IMVI
ACHN = system: ACHN
COLO 205 = system: COLO 205
SK-OV-3 = system: SK-OV-3
EKVX = system: EKVX
UACC-62 = system: UACC-62
U-251 = system: U-251
OVCAR-8 = system: OVCAR-8
TK-10 = system: TK-10
SR = system: SR
HOP-18 = system: HOP-18
UACC-257 = system: UACC-257
CCRF-CEM = system: CCRF-CEM
SK-MEL-28 = system: SK-MEL-28
IGROV-1 = system: IGROV-1
CAKI-1 = system: CAKI-1
DLD-1 = system: DLD-1
HCC 2998 = system: HCC 2998
OVCAR-5 = system: OVCAR-5
A498 = system: A498
HOP-92 = system: HOP-92
M14 = system: M14
SF-539 = system: SF-539
OVCAR-3 = system: OVCAR-3

## CC(=O)OC12/C(=N/O)CCCCCC1c1ccccc12 (stereo unspecified)
SN12C
  GI50: > 100 µM (inactive)
NCI-H23
  GI50: 70.8 µM (inactive)
HCT-15
  GI50: > 100 µM
XF498
  GI50: 62.8 µM (inactive)
A549
  GI50: > 100 µM (inactive)
SNB-75
  GI50: 42.8 µM (inactive)
NCI-H522
  GI50: 31.2 µM (inactive)
SF-268
  GI50: > 100 µM (inactive)
K562
  GI50: 39.2 µM (inactive)
HCT-116
  GI50: 84.7 µM (inactive)
SW-620
  GI50: > 100 µM (inactive)
MOLT-4
  GI50: 25.4 µM (inactive)
SK-MEL-5
  GI50: > 100 µM (inactive)
SNB-19
  GI50: > 100 µM (inactive)
DMS-273
  GI50: > 100 µM (inactive)
Malme-3M
  GI50: > 100 µM (inactive)
RXF 393
  GI50: 29.6 µM (inactive)
OVCAR-4
  GI50: 60.8 µM (inactive)
HL-60
  GI50: 64.3 µM (inactive)
KM12
  GI50: > 100 µM (inactive)
HT-29
  GI50: > 100 µM (inactive)
UO-31
  GI50: 27.5 µM (inactive)
SF-295
  GI50: 96.8 µM (inactive)
HOP-62
  GI50: > 100 µM (inactive)
RPMI-8226
  GI50: 33.6 µM (inactive)
NCI-H460
  GI50: > 100 µM (inactive)
LXFL 529
  GI50: 66.8 µM (inactive)
SNB-78
  GI50: 36.3 µM (inactive)
SK-MEL-2
  GI50: > 100 µM (inactive)
M19-MEL
  GI50: > 100 µM (inactive)
NCI-H226
  GI50: > 100 µM (inactive)
DMS-114
  GI50: 41.7 µM (inactive)
786-0
  GI50: > 100 µM (inactive)
KM-20L2
  GI50: > 100 µM (inactive)
LOX IMVI
  GI50: > 100 µM (inactive)
ACHN
  GI50: 95.3 µM (inactive)
COLO 205
  GI50: > 100 µM (inactive)
SK-OV-3
  GI50: > 100 µM (inactive)
EKVX
  GI50: 68.1 µM (inactive)
UACC-62
  GI50: 95.5 µM (inactive)
U-251
  GI50: > 100 µM (inactive)
OVCAR-8
  GI50: > 100 µM (inactive)
TK-10
  GI50: > 100 µM (inactive)
SR
  GI50: 30.4 µM (inactive)
HOP-18
  GI50: > 100 µM (inactive)
UACC-257
  GI50: 74.8 µM (inactive)
CCRF-CEM
  GI50: 26.4 µM (inactive)
SK-MEL-28
  GI50: > 100 µM (inactive)

## C=CCCn1nc(-c2ccccc2)oc1=O
SN12C
  GI50: > 100 µM (inactive)
NCI-H23
  GI50: > 100 µM (inactive)
HCT-15
  GI50: > 100 µM
XF498
  GI50: > 100 µM (inactive)
A549
  GI50: > 100 µM (inactive)
SNB-75
  GI50: > 100 µM (inactive)
NCI-H522
  GI50: > 100 µM (inactive)
SF-268
  GI50: > 100 µM (inactive)
K562
  GI50: > 100 µM (inactive)
HCT-116
  GI50: > 100 µM (inactive)
SW-620
  GI50: > 100 µM (inactive)
IGROV-1
  GI50: > 100 µM (inactive)
MOLT-4
  GI50: > 100 µM (inactive)
SK-MEL-5
  GI50: > 100 µM (inactive)
SNB-19
  GI50: > 100 µM (inactive)
DMS-273
  GI50: > 100 µM (inactive)
Malme-3M
  GI50: > 100 µM (inactive)
RXF 393
  GI50: > 100 µM (inactive)
CAKI-1
  GI50: > 100 µM (inactive)
OVCAR-4
  GI50: > 100 µM (inactive)
DLD-1
  GI50: > 100 µM (inactive)
HCC 2998
  GI50: > 100 µM (inactive)
HL-60
  GI50: > 100 µM (inactive)
KM12
  GI50: > 100 µM (inactive)
HT-29
  GI50: > 100 µM (inactive)
UO-31
  GI50: > 100 µM (inactive)
SF-295
  GI50: > 100 µM (inactive)
HOP-62
  GI50: > 100 µM (inactive)
NCI-H460
  GI50: > 100 µM (inactive)
LXFL 529
  GI50: > 100 µM (inactive)
SNB-78
  GI50: > 100 µM (inactive)
SK-MEL-2
  GI50: > 100 µM (inactive)
M19-MEL
  GI50: > 100 µM (inactive)
OVCAR-5
  GI50: > 100 µM (inactive)
NCI-H226
  GI50: > 100 µM (inactive)
A498
  GI50: > 100 µM (inactive)
HOP-92
  GI50: > 100 µM (inactive)
786-0
  GI50: > 100 µM (inactive)
KM-20L2
  GI50: > 100 µM (inactive)
LOX IMVI
  GI50: > 100 µM (inactive)
ACHN
  GI50: > 100 µM (inactive)
COLO 205
  GI50: > 100 µM (inactive)
SK-OV-3
  GI50: > 100 µM (inactive)
EKVX
  GI50: > 100 µM (inactive)
M14
  GI50: > 100 µM (inactive)
UACC-62
  GI50: > 100 µM (inactive)
U-251
  GI50: > 100 µM (inactive)
OVCAR-8
  GI50: > 100 µM (inactive)
SF-539
  GI50: > 100 µM (inactive)
TK-10
  GI50: > 100 µM (inactive)
SR
  GI50: > 100 µM (inactive)
OVCAR-3
  GI50: > 100 µM (inactive)
HOP-18
  GI50: > 100 µM (inactive)
UACC-257
  GI50: > 100 µM (inactive)
CCRF-CEM
  GI50: > 100 µM (inactive)
SK-MEL-28
  GI50: > 100 µM (inactive)

## BrC1(Br)C2/C=C\CCCCC21 (stereo unspecified)
SN12C
  GI50: > 100 µM (inactive)
NCI-H23
  GI50: > 100 µM (inactive)
XF498
  GI50: > 100 µM (inactive)
A549
  GI50: > 100 µM (inactive)
NCI-H522
  GI50: > 100 µM (inactive)
SF-268
  GI50: > 100 µM (inactive)
K562
  GI50: > 100 µM (inactive)
HCT-116
  GI50: > 100 µM (inactive)
SW-620
  GI50: > 100 µM (inactive)
IGROV-1
  GI50: > 100 µM (inactive)
MOLT-4
  GI50: > 100 µM (inactive)
SNB-19
  GI50: > 100 µM (inactive)
DMS-273
  GI50: > 100 µM (inactive)
Malme-3M
  GI50: > 100 µM (inactive)
RXF 393
  GI50: > 100 µM (inactive)
CAKI-1
  GI50: > 100 µM (inactive)
OVCAR-4
  GI50: > 100 µM (inactive)
HCC 2998
  GI50: > 100 µM (inactive)
HL-60
  GI50: > 100 µM (inactive)
KM12
  GI50: > 100 µM (inactive)
HT-29
  GI50: > 100 µM (inactive)
SF-295
  GI50: > 100 µM (inactive)
HOP-62
  GI50: > 100 µM (inactive)
NCI-H460
  GI50: > 100 µM (inactive)
LXFL 529
  GI50: > 100 µM (inactive)
SNB-78
  GI50: > 100 µM (inactive)
SK-MEL-2
  GI50: > 100 µM (inactive)
M19-MEL
  GI50: > 100 µM (inactive)
OVCAR-5
  GI50: > 100 µM (inactive)
NCI-H226
  GI50: > 100 µM (inactive)
A498
  GI50: > 100 µM (inactive)
HOP-92
  GI50: 42.3 µM (inactive)
786-0
  GI50: > 100 µM (inactive)
KM-20L2
  GI50: > 100 µM (inactive)
LOX IMVI
  GI50: > 100 µM (inactive)
ACHN
  GI50: > 100 µM (inactive)
COLO 205
  GI50: > 100 µM (inactive)
EKVX
  GI50: > 100 µM (inactive)
U-251
  GI50: > 100 µM (inactive)
OVCAR-8
  GI50: > 100 µM (inactive)
SF-539
  GI50: > 100 µM (inactive)
TK-10
  GI50: > 100 µM (inactive)
SR
  GI50: > 100 µM (inactive)
HOP-18
  GI50: > 100 µM (inactive)
UACC-257
  GI50: > 100 µM (inactive)
CCRF-CEM
  GI50: > 100 µM (inactive)
SK-MEL-28
  GI50: > 100 µM (inactive)

— ChEMBL document CHEMBL1201862, “PubChem BioAssay data set” (2004)
